Reference: patent US4837228A, “Antiinflammatory and antimicrobial compounds and compositions” (The University of Mississippi, priority 1982, dated 1989)
In brackets after ≈: the same amount, converted by molar mass. Several values for one entry are separate records, joined by “and”; a condition that tells them apart may be missing. Equal values may be shown once. Read-outs that look alike come from different tables or passages of the source.

Columns and labels:
Type in all cases: cell-based
[1] = system: Mycobacterium smegmatis; test: MIC, two-fold (broth) serial dilution, M. smegmatis
Experimental: (§1) Both qualitative and quantitative screens were performed. Qualitative screening was accomplished using the agar well diffusion assay technque while quantitative screening was accomplished by the two-fold (broth) serial dilution method to determine the minimum inhibitory concentration (MIC). Innoculation was accomplished with one loop-full of a 1:10 dilution of the 24-hour-old broth culture, (fungal cultures and M.smegmatis more often required 48 to 72 hours of incubation) of the test organisms in sterile water. Streptomycin sulfate was used as a positive control for antibacterial activity while amphitericin B was used as an antifungal positive control. Organisms utilized in the screens included gram-positive, gram-negative, and acid-fast bacteria as well as different types of fungi. […] An intermediate type activity is seen where R is hydrogen. However, where R is lengthened up to C15 a decrease in activity was noted. Total saturation of the two double bonds in the compounds having a methyl side chain lead, in most cases, to an increase in both antifungal and antibacterial activity.

[2] = system: Candida albicans; test: MIC, two-fold (broth) serial dilution, C. albicans
Experimental: as §1

[3] = system: Saccharomyces cerevisiae; test: MIC, two-fold (broth) serial dilution, S. cerevisiae
Experimental: as §1

[4] = system: Trichophyton mentagrophytes; test: MIC, two-fold (broth) serial dilution, T. mentagrophytes
Experimental: as §1

[5] = system: erythrocyte (heat-induced hemolysis); test: erythrocyte membrane stabilization assay (heat-induced erythrocyte hemolysis); conditions: Erythrocyte; for inhibition at 250 µM: 2.5 × 10^-4 M
Experimental: The published procedure (Proc. Soc. Exp. Biol. Med. 1967; 125; 837-842 Brow et al) for in vitro assay for antiinflammatory agents based on stabilization of erythrocytes was used. All compounds were prepared for administration by dissolving in physiologic saline or suspending in 2% ethanol in saline and the pH adjusted to 7.4 The concentrations tested in one series are given in Table 8. Aspirin (ASA) and phenylbutazone were used as positive controls for comparison of activity. Tests using this procedure were successfully and repeatedly using either 40% or 20% RBC suspensions.

[6] = system: Bacillus subtilis; test: agar well diffusion assay, B. subtilis; conditions: from edge of agar well
Experimental: as §1

[7] = system: Staphylococcus aureus; test: agar well diffusion assay, S. aureus; conditions: from edge of agar well
Experimental: as §1

[8] = system: Mycobacterium smegmatis; test: agar well diffusion assay, M. smegmatis; conditions: from edge of agar well
Experimental: as §1

[9] = system: Escherichia coli; test: agar well diffusion assay, E. coli; conditions: from edge of agar well
Experimental: as §1

[10] = system: Pseudomonas aeruginosa; test: agar well diffusion assay, Ps. aeruginosa; conditions: from edge of agar well
Experimental: as §1

[11] = system: Candida albicans; test: agar well diffusion assay, C. albicans; conditions: from edge of agar well
Experimental: as §1

[12] = system: Saccharomyces cerevisiae; test: agar well diffusion assay, S. cerevisiae; conditions: from edge of agar well
Experimental: as §1

[13] = system: Trichophyton mentagrophytes; test: agar well diffusion assay, T. mentagrophytes; conditions: one entry across 48 hr and 72 hr
Experimental: as §1

[14] = system: Aspergillus niger; test: agar well diffusion assay, A. niger; conditions: from edge of agar well
Experimental: as §1

[15] = system: Bacillus subtilis; test: MIC, two-fold (broth) serial dilution, B. subtilis
Experimental: as §1

[16] = system: Staphylococcus aureus; test: MIC, two-fold (broth) serial dilution, S. aureus
Experimental: as §1

[17] = 48 hr, listed as Streptomycin-SO4
[18] = 24 hr, listed as Streptomycin-SO4

## 2-methyl-2(4'-methyl-pent-3'-enyl)-5-hydroxy-7-pent-dec-8'-enyl chromene [CBC (VIII)]
[1]; 24 hr
  MIC: 12.5 mg/L and 25 mg/L
[2]; 48 hr
  MIC: 50 mg/L
[2]; 72 hr
  MIC: 100 mg/L
[3]; 48 hr
  MIC: 100 mg/L
[3]; 72 hr
  MIC: 100 mg/L
[4]; 48 hr
  MIC: 25 mg/L
[4]; 72 hr
  MIC: 50 mg/L

## CC(=O)Oc1ccccc1C(=O)O [Aspirin, Acetylsalicylic Acid, reference compound]
[5]; Table 8, read-out: inhibition of heat-induced erythrocyte hemolysis
  inhibition at 250 µM: 21%
[5]; Table 9 Test 1 (20% RBC), read-out: percent inhibition of heat-induced erythrocyte hemolysis
  inhibition at 250 µM: 21%
[5]; Table 9 Test 3 (20% RBC), 5.0 × 10^-4 M, read-out: percent inhibition of heat-induced erythrocyte hemolysis
  inhibition at 500 µM: 40%
[5]; 5×10^-4 M, read-out: inhibition of heat-induced red cell hemolysis
  inhibition at 500 µM: 40%

## CCCCCc1cc(O)c2c(c1)OC(C)(CCCC(C)C)CC2 (stereo not drawn) [CBC (X), 2-methyl-2(4'-methyl-pentyl)-5-hydroxy-7-pentyl chroman]
[6]; 24 hr
  width of inhibition zone: 4.0 mm
[6]; 48 hr
  width of inhibition zone: 4.0 mm
[7]; 24 hr
  width of inhibition zone: 13. mm
[7]; 48 hr
  width of inhibition zone: 13. mm
[8]; 24 hr
  width of inhibition zone: 7. mm
[8]; 48 hr
  width of inhibition zone: 7. mm
[9]; 24 hr
  width of inhibition zone: 5. mm
[9]; 48 hr
  width of inhibition zone: 5. mm
[10]; 24 hr
  width of inhibition zone: 1. mm
[10]; 48 hr
  width of inhibition zone: 1. mm
[11]; 48 hr
  width of inhibition zone: 2. mm
[11]; 72 hr
  width of inhibition zone: 3. mm
[12]; 48 hr
  width of inhibition zone: 7. mm
[12]; 72 hr
  width of inhibition zone: 7. mm
[13]
  agar well diffusion result in words: No growth
[14]; 48 hr
  width of inhibition zone: 1. mm
[14]; 72 hr
  width of inhibition zone: 1. mm

## CCCCCc1cc(O)cc2c1C=CC(C)(CCC=C(C)C)O2 (stereo not drawn) [Iso CBC (IX), 2-methyl-2(4'-methyl-pent-3'-enyl)-5-pentyl-7-hydroxy chromene]
[5]; read-out: inhibition of heat-induced erythrocyte hemolysis, Table 8, 1 × 10^-4 M
  inhibition at 100 µM: 75%
[15]; Bacillus subtilis, 24 h, read-out: MIC
  MIC: 0.78 mg/L (≈ 2.48 µM)
[15]; Bacillus subtilis, 48 h, read-out: MIC
  MIC: 3.12 mg/L (≈ 9.92 µM)
[1]; Mycolicibacterium smegmatis, 24 h, read-out: MIC
  MIC: 25 mg/L (≈ 79.5 µM)
[1]; Mycolicibacterium smegmatis, 48 h, read-out: MIC
  MIC: 25 mg/L (≈ 79.5 µM)
[2]; Candida albicans, 48 h, read-out: MIC
  MIC: 50 mg/L (≈ 159 µM)
[2]; Candida albicans, 72 h, read-out: MIC
  MIC: 100 mg/L (≈ 318 µM)

## [H]/N=C(/N)N[C@H]1[C@H](O)[C@@H](O)[C@H](O[C@@H]2O[C@@H](C)[C@](O)(C=O)[C@H]2O[C@@H]2O[C@@H](CO)[C@H](O)[C@@H](O)[C@@H]2NC)[C@@H](N/C(N)=N\[H])[C@@H]1O [Streptomycin SO4, reference compound]
[15]; 24 hr
  MIC: 3.12 mg/L (≈ 5.36 µM)
[15]; 48 hr
  MIC: 25 mg/L (≈ 43 µM)
[16]; 24 hr
  MIC: 3.12 mg/L (≈ 5.36 µM)
[16]; 48 hr
  MIC: 12.5 mg/L and 6.25 mg/L
[16]; [17]
  MIC: 12.5 mg/L and 25.0 mg/L and 25 mg/L
[1]; 24 hr
  MIC: 1.56 mg/L (≈ 2.68 µM)
[1]; [18]
  MIC: 1.56 mg/L and 0.78 mg/L
[1]; 48 hr
  MIC: 1.56 mg/L (≈ 2.68 µM)
[1]; [17]
  MIC: 1.56 mg/L and 0.78 mg/L
[6]; 24 hr
  width of inhibition zone: 7. mm
[6]; [18]
  width of inhibition zone: 11. mm
[6]; 48 hr
  width of inhibition zone: 8. mm
[6]; [17]
  width of inhibition zone: 10. mm
[7]; 24 hr
  width of inhibition zone: 9. mm
[7]; [18]
  width of inhibition zone: 10. mm
[7]; 48 hr
  width of inhibition zone: 9. mm
[7]; [17]
  width of inhibition zone: 10. mm
[8]; 24 hr
  width of inhibition zone: 20. mm
[8]; 48 hr
  width of inhibition zone: 22. mm
[9]; 24 hr
  width of inhibition zone: 2. mm
[9]; [18]
  width of inhibition zone: 5. mm
[9]; 48 hr
  width of inhibition zone: 2. mm
[9]; [17]
  width of inhibition zone: 5. mm
[10]; 24 hr
  width of inhibition zone: 3. mm
[10]; [18]
  width of inhibition zone: 7. mm
[10]; 48 hr
  width of inhibition zone: 3. mm
[10]; [17]
  width of inhibition zone: 6. mm

## Cc1ccc(C(=O)c2ccc(CC(=O)O)n2C)cc1 [Tolmetin, reference compound]
[5]; Table 9 Test 1 (20% RBC), 2.0 × 10^-4 M, read-out: percent inhibition of heat-induced erythrocyte hemolysis
  inhibition at 200 µM: 27%
